Data: patent US9657046B2, “Methods for the treatment and prevention of inflammatory diseases” (Children's Medical Center Corporation, priority 2010, dated 2017)

How the values were obtained:
T-bet−/− mice = assay: OVA-induced AHR in T-bet−/− mice treated with glycolipid at 2 weeks of age; assay type: in vivo, mouse; conditions: 2 wk old T-bet−/− mice; α-C-GalCer 5 μg or PI57 50 μg; AHR measured on day 44
Experimental: In FIGS. 6A-6B, two-week-old BALB/c mice (n=6-8/group) (6A) or Tbet^−/− mice (6B) (n=4-6 per group) received 5 μg […] (cGal), 2 μg α-GalCer, or vehicle. After OVA sensitization and challenge, AHR was measured on day 44. In FIG. 6C, donor mice were treated with α-C-GalCer (5 μg) or vehicle i.p. NKT cells served as donors, as in FIG. 4A (n=4 per group). Lung resistance (left) and cell counts in BAL (right) were assessed. […] In FIG. 6E, mice received PI57 (50 μg), α-GalCer (2 μg), or vehicle i.p., and lungs were examined 1 or 14 days later for CD4 and CD8 expression. In FIG. 6F, absolute numbers of CD4^+ NKT and DN NKT subsets from 6E were assessed. In FIG. 6G, BALB/c mice (n=5-8/group) received PI57 or vehicle i.p. Lung resistance (left) and BAL cells (right) were assessed. In FIG. 6H, BALB/c mice treated with PI57 (50 μg), PBS30 (Sphingomonas glycolipid) (50 μg), or vehicle i.p. were assessed for AHR as in 6G. […] Lung resistance (left) and BAL cells (right) were assessed (n=4 per group). […]
In FIG. 10, NKT cells from α-GalCer or vehicle-treated mice were adoptively transferred to OVA-sensitized BALB/c recipients. AHR was measured after OVA challenge. […] After sensitization and challenge with OVA, AHR was measured on day 44. […]
To induce AHR, BALB/c mice were sensitized with 100 μg of OVA (Sigma-Aldrich) in alum administered i.p (on day 0). […] AHR was assessed on the day after last OVA-challenge. […]

mouse NKT cell lines = assay: Staining of mouse NKT cell line with PI57-loaded CD1d tetramers; assay type: binding
Experimental: In FIG. 7A, NKT cell lines were cocultured with BM-derived DCs (BMDCs) and α-GalCer (100 ng/ml), PI57 (10 μg/ml), or vehicle for 48 hours, with or without pre-incubation with anti-CD1d (10 μg/ml). IFN-γ was measured by ELISA. In FIG. 7B, murine NKT cell lines were cocultured as in 7A with BMDCs from WT, Cd1d^−/−, Myd88^−/−, or Trif^−/− mice. Cells were treated with α-GalCer (100 ng/ml), PI57 (2.5, 5, or 10 μg/ml), PBS30 (1, 2.5, or 5 μg/ml), or vehicle for 48 hours. IFN-γ and IL-4 were measured by ELISA. […] In FIG. 7D, mouse NKT cell lines were stained with PE-labeled CD1d tetramers of PI57 or α-GalCer at 4° C. for 45 minutes or 37° C. for 25 minutes, and with anti-TCRβ-APC antibody. Top: Lymphocytes were gated in the FSC/SSC window. Bottom: Percentage of CD1d tetramer+ cells. […] In FIG. 7G, CD1d Fc-coated Maxisorp plates were loaded with lipid and cultured with 5×10^4 NKT cells. IFN-γ was analyzed by ELISA after 24 hours. Data represent 3 or 5 independent experiments.
To generate PI57 loaded mCD1d monomers, a 10-fold molar excess of PI57 in DMSO at 2 mg/ml was incubated with biotinylated-mCD1d (from the NIH Tetramer facility) in 2 mM CHAPS and 20 mM Tris pH7.0 overnight at room temperature. […]
Cells were preincubated with anti-Fey blocking mAb (2.4G2) and washed before staining. […] Cells were analyzed on a BDCanto flow cytometer (BD Biosciences) using FlowJo 8.3.3 software (Tree Star, Inc.).

adult mice = assay: Ozone-exposure model, pre-treatment of adult mice; assay type: in vivo, mouse; conditions: pre-treatment prior to ozone-exposure

CCCCCCCCCCCCCC(=O)OC[C@H]1O[C@H](O[C@H]2CC[C@@]3(C)C(=CC[C@H]4[C@@H]5CC[C@H]([C@H](C)CCCC(C)C)[C@@]5(C)CC[C@@H]43)C2)[C@H](O)[C@@H](O)[C@@H]1O [PI57, Cholesteryl 6-O-tetradecanoyl-α-D-glucopyranoside]
protection against OVA-induced AHR in T-bet−/− mice (T-bet−/− mice): did not protect against subsequent OVA-induced AHR | fraction of PI57-CD1d tetramer+ cells that were CD4− (DN) (mouse NKT cell lines): 92% | NKT cells in an NKT cell line stained by glycolipid-loaded CD1d tetramers (mouse NKT cell lines; 4° C. for 45 minutes or 37° C. for 25 minutes): 10-23% | airway hyperreactivity after ozone exposure (adult mice): inhibit or suppress airway hyperreactivity | lung inflammation after ozone exposure (adult mice): inhibit or suppress airway hyperreactivity and lung inflammation
